Legend:
[1] = test system: NFκB p65 (Ser536) phosphorylation by AngII; assay: NFκB p65 phosphorylation; format: cell-based, human; conditions: 10 nM AngII, 5 min
AT1 receptor [2] = assay: Phosphoinositide; format: cell-based, human
[3] = test system: mutant AT1 receptor containing the IC2 of the BKB2R; conditions: HEK-293 cells, ref [10]; cited from earlier work
AT1 receptor [4] = assay: Calcium mobilization in AT1-transfected HEK-293 cells; format: cell-based, human; conditions: 10 nM AngII, Fura-2/AM fluorescence
[5] = test system: Akt/PKB (Ser473) phosphorylation by AngII via endogenous AT1 receptor; assay: Akt/PKB phosphorylation; format: cell-based, human; conditions: 10 nM AngII, 5 min
AT1 receptor [6] = conditions: AT1 cDNA transfected HEK-293 cells; ref [10]; cited from earlier work
[7] = test system: ERK1/2 activation by AngII; assay: ERK1/2 phosphorylation; format: cell-based, human; conditions: 10 μM peptide; 10 nM AngII, 5 min; western blot; average of three gels
bradykinin B2 receptor = bradykinin B2 receptor cDNA transfected cells; ref [10]; cited from earlier work

Substance: Angiotensin II (DRVYIHPF; Angiotensin-2; UniProt P01019 25-32, looked up) [AngII]
- Ser536 phosphorylation of p65 by AngII (in words) ([1]; no peptide): clearly enhanced
- PI turnover induced by AngII (in words) (AT1 receptor [2]; 10 nM AngII, 30 min at 37°C, no peptide): induced a marked PI turnover
- pAkt (in words) [3]: decreased pAkt
- calcium influx caused by AngII (in words) (AT1 receptor [4]; no peptide): strong calcium influx
- activation of Akt/PKB by AngII (in words) ([5]; no peptide): sizable activation of Akt/PKB
- Akt phosphorylation (in words) (AT1 receptor [6]): increases Akt phosphorylation

Substance: GRKKRRQRRRPPQGGVHPMKSRLRRT [AT1 IC2 peptide]
- effect on ERK1/2 activation by AngII (in words) [7]: no effect

Substance: GRKKRRQRRRPPQGGVKTMSMGRMRG [control peptide]
- effect on AngII dependent NFκB activation / p65 phosphorylation (in words) ([1]; 10 μM peptide): no inhibitory effect
- effect on AngII induced PI turnover (in words) (AT1 receptor [2]; 10 μM peptide, 30 min before 10 nM AngII): unhindered
- effect on ERK1/2 activation by AngII (in words) [7]: neither the control peptide nor the IC2 peptide at 10 μM affected the activation of this MAP kinase by AngII
- effect on AngII promoted Ca2+ entry (in words) (AT1 receptor [4]; 10 μM peptide): no effect
- effect on AngII induced Akt phosphorylation (in words) ([5]; 10 μM peptide): no effect

Substance: bradykinin
- Akt phosphorylation (in words) (bradykinin B2 receptor): decreases it

From PMC2994263 (Chemical biology & drug design, 2010)
